# In US20210393633A1, “INHIBITORS OF HUMAN IMMUNODEFICIENCY VIRUS REPLICATION” (ViiV HEALTHCARE UK (NO.5) LIMITED, priority 2018, published 2021):
# Tests used:
# [1] = tested on: recombinant NL4-3 virus (nef section replaced with Renilla luciferase gene) in MT-2 cells; assay: HIV cell culture assay (antiviral activity, luciferase readout in infected MT-2 cells); format: cell-based; details: NL43
# Procedure: HIV cell culture assay—MT-2 cells, 293T cells and the proviral DNA clone of NL4-3 virus were obtained from the NIH AIDS Research and Reference Reagent Program. MT-2 cells were propagated in RPMI 1640 media supplemented with 10% heat inactivated fetal bovine serum (FBS), […]. The 293T cells were propagated in DMEM media supplemented with 10% heat inactivated FBS, […]. A recombinant NL4-3 proviral clone, in which a section of the nef gene was replaced with the Renilla luciferase gene, was used to make the reference virus used in these studies. The recombinant virus was prepared through transfection of the recombinant NL4-3 proviral clone into 293T cells using Transit-293 Transfection Reagent from Minis Bio LLC (Madison, Wis.). Supernatent was harvested after 2-3 days and the amount of virus present was titered in MT-2 cells using luciferase enzyme activity as a marker by measuring luciferase enzyme activity. Luciferase was quantitated using the EnduRen Live Cell Substrate from Promega (Madison, Wis.). Antiviral activities of compounds toward the recombinant virus were quantified by measuring luciferase activity in MT-2 cells infected for 4-5 days with the recombinant virus in the presence of serial dilutions of the compound.
# The 50% effective concentration (EC5o) was calculated by using the exponential form of the median effect equation where (Fa)=1/[1+(ED50/drug conc.)m] (Johnson Va., Byington R T. Infectivity Assay. In Techniques in HIV Research. ed. Aldovini A, Walker B D. 71-76. New York: Stockton Press.1990). The 50% inhibitory concentration (EC50) was calculated by using the exponential form of the median effect equation where percent inhibition=1/[1 +(EC50/drug concentration)m], where m is a parameter that reflects the slope of the concentration-response curve.
# [2] = Compound cytotoxicity, XTT-based colorimetric assay; format: cell-based; details: human; uninfected MT2 cells, day 4, XTT
# Procedure: Compound cytotoxicity and the corresponding CC50 values were determined using the same protocol as described in the antiviral assay except that uninfected cells were used. Cytotoxicity was assessed on day 4 in uninfected MT2 cells by using a XTT (2,3-bis[2-Methoxy-4-nitro-5-sulfophenyl]-2H-tetrazolium-5-carboxyanilide inner salt)-based colorimetric assay (Sigma-Aldrich, St Louis, Mo).
SMILES,EC50 [1] [nM],CC50 at 4 day [2] [nM]
"Cn1nc(NS(C)(=O)=O)c2c(Cl)ccc(-n3c([C@H](Cc4cc(F)cc(F)c4)NC(=O)Cn4nc(C(F)F)c5c4C(F)(F)[C@@H]4C[C@H]54)nc4cc(CCc5ccccc5)ccc4c3=O)c21 (atropisomer, axis not shown; (P)) [Example 3, N—((S)-1-((3P)-3-(4-chloro-1-methyl-3-(methylsulfonamido)-1H-indazol-7-yl)-4-oxo-7-phenethyl-3,4-dihydroquinazolin-2-yl)-2-(3,5-difluorophenyl)ethyl)-2-((3bS,4aR)-3-(difluoromethyl)-5,5-difluoro-3b,4,4a,5-tetrahydro-1H-cyclopropa[3,4]cyclopenta[1,2-c]pyrazol-1-yl)acetamide]",0.771,> 1000
"CCCCCCCCc1ccc2c(=O)n(-c3ccc(Cl)c4c(NS(C)(=O)=O)nn(C)c34)c([C@H](Cc3cc(F)cc(F)c3)NC(=O)Cn3nc(C(F)F)c4c3C(F)(F)[C@@H]3C[C@H]43)nc2c1 (atropisomer, axis not shown; (P)) [Example 4, N—((S)-1-((3P)-3-(4-chloro-1-methyl-3-(methylsulfonamido)-1H-indazol-7-yl)-7-octyl-4-oxo-3,4-dihydroquinazolin-2-yl)-2-(3,5-difluorophenyl)ethyl)-2-((3bS,4aR)-3-(difluoromethyl)-5,5-difluoro-3b,4,4a, 5-tetrahydro-1H-cyclopropa[3, 4]cyclopenta [1,2-c]pyrazol-1-yl)acetamide]",3.9,> 1000
"Cn1nc(NS(C)(=O)=O)c2c(Cl)ccc(-n3c([C@H](Cc4cc(F)cc(F)c4)NC(=O)Cn4nc(C(F)F)c5c4C(F)(F)[C@@H]4C[C@H]54)nc4cc(Cc5ccccc5)ccc4c3=O)c21 (atropisomer, axis not shown; (P)) [Example 5, N—((S)-1-(7-benzyl-(3P)-3-(4-chloro-1-methyl-3-(methylsulfonamido)-1H-indazol-7-yl)-4-oxo-3,4-dihydroquinazolin-2-yl)-2-(3,5-difluorophenyl)ethyl)-2-((3bS,4aR)-3-(difluoromethyl)-5,5-difluoro-3b,4,4a,5-tetrahydro-1H-cyclopropa[3,4]cyclopenta[1,2-c]pyrazol-1-yl)acetamide]",0.221,> 1000
"Cn1nc(NS(C)(=O)=O)c2c(Cl)ccc(-n3c([C@H](Cc4cc(F)cc(F)c4)NC(=O)Cn4nc(C(F)F)c5c4C(F)(F)[C@@H]4C[C@H]54)nc4cc(C5=CCCCC5)ccc4c3=O)c21 (atropisomer, axis not shown; (P)) [Example 6, N—((S)-1-((3P)-3-(4-chloro-1-methyl-3-(methylsulfonamido)-1H-indazol-7-yl)-7-(cyclohex-1-en-1-yl)-4-oxo-3,4-dihydroquinazolin-2-yl)-2-(3,5-difluorophenyl)ethyl)-2-((3bS,4aR)-3-(difluoromethyl)-5,5-difluoro-3b,4,4a,5-tetrahydro-1H-cyclopropa[3,4]cyclopenta[1,2-c]pyrazol-1-yl)acetamide]",1.32,> 1000
"CC(C)=C(C)c1ccc2c(=O)n(-c3ccc(Cl)c4c(NS(C)(=O)=O)nn(C)c34)c([C@H](Cc3cc(F)cc(F)c3)NC(=O)Cn3nc(C(F)F)c4c3C(F)(F)[C@@H]3C[C@H]43)nc2c1 (atropisomer, axis not shown; (P)) [Example 7, N—((S)-1-((3P)-3-(4-chloro-1-methyl-3-(methylsulfonamido)-1H-indazol-7-yl)-7-(3-methylbut-2-en-2-yl)-4-oxo-3,4-dihydroquinazolin-2-yl)-2-(3,5-difluorophenyl)ethyl)-2-((3bS,4aR)-3-(difluoromethyl)-5,5-difluoro-3b,4,4a,5-tetrahydro-1H-cyclopropa[3,4]cyclopenta[1,2-c]pyrazol-1-yl)acetamide]",0.386,> 1000
"Cn1nc(NS(C)(=O)=O)c2c(Cl)ccc(-n3c([C@H](Cc4cc(F)cc(F)c4)NC(=O)Cn4nc(C(F)F)c5c4C(F)(F)[C@@H]4C[C@H]54)nc4cc(C5=CCCC5)ccc4c3=O)c21 (atropisomer, axis not shown; (P)) [Example 8, N—((S)-1-((3P)-3-(4-chloro-1-methyl-3-(methylsulfonamido)-1H-indazol-7-yl)-7-(cyclopent-1-en-1-yl)-4-oxo-3,4-dihydroquinazolin-2-yl)-2-(3,5-difluorophenyl)ethyl)-2-((3bS,4aR)-3-(difluoromethyl)-5,5-difluoro-3b,4,4a,5-tetrahydro-1H-cyclopropa[3,4]cyclopenta[1,2-c]pyrazol-1-yl)acetamide]",0.392,> 1000
"Cn1nc(NS(C)(=O)=O)c2c(Cl)ccc(-n3c([C@H](Cc4cc(F)cc(F)c4)NC(=O)Cn4nc(C(F)F)c5c4C(F)(F)[C@@H]4C[C@H]54)nc4cc(C5=CCOCC5)ccc4c3=O)c21 (atropisomer, axis not shown; (P)) [Example 9, N—((S)-1-((3P)-3-(4-chloro-1-methyl-3-(methylsulfonamido)-1H-indazol-7-yl)-7-(3,6-dihydro-2H-pyran-4-yl)-4-oxo-3,4-dihydroquinazolin-2-yl)-2-(3,5-difluorophenyl)ethyl)-2-((3bS,4aR)-3-(difluoromethyl)-5,5-difluoro-3b,4,4a,5-tetrahydro-1H-cyclopropa[3,4]cyclopenta[1,2-c]pyrazol-1-yl)acetamide]",0.064,> 1000
"Cn1nc(NS(C)(=O)=O)c2c(Cl)ccc(-n3c([C@H](Cc4cc(F)cc(F)c4)NC(=O)Cn4nc(C(F)F)c5c4C(F)(F)[C@@H]4C[C@H]54)nc4cc(C5CCOCC5)ccc4c3=O)c21 (atropisomer, axis not shown; (P)) [Example 11, N—((S)-1-((3P)-3-(4-chloro-1-methyl-3-(methylsulfonamido)-1H-indazol-7-yl)-4-oxo-7-(tetrahydro-2H-pyran-4-yl)-3,4-dihydroquinazolin-2-yl)-2-(3,5-difluorophenyl)ethyl)-2-((3bS,4aR)-3-(difluoromethyl)-5,5-difluoro-3b,4,4a,5-tetrahydro-1H-cyclopropa[3,4]cyclopenta[1,2-c]pyrazol-1-yl)acetamide]",0.046,> 1000
"Cn1nc(NS(C)(=O)=O)c2c(Cl)ccc(-n3c([C@H](Cc4cc(F)cc(F)c4)NC(=O)Cn4nc(C(F)F)c5c4C(F)(F)[C@@H]4C[C@H]54)nc4cc(CC5CC5)ccc4c3=O)c21 (atropisomer, axis not shown; (P)) [Example 12, N—((S)-1-((3P)-3-(4-chloro-1-methyl-3-(methylsulfonamido)-1H-indazol-7-yl)-7-(cyclopropylmethyl)-4-oxo-3,4-dihydroquinazolin-2-yl)-2-(3,5-difluorophenyl)ethyl)-2-((3bS,4aR)-3-(difluoromethyl)-5,5-difluoro-3b,4,4a,5-tetrahydro-1H-cyclopropal3,41cyclopenta[1,2-c]pyrazol-1-yl)acetamide]",0.142,> 1000
"CN1CC=C(c2ccc3c(=O)n(-c4ccc(Cl)c5c(NS(C)(=O)=O)nn(C)c45)c([C@H](Cc4cc(F)cc(F)c4)NC(=O)Cn4nc(C(F)F)c5c4C(F)(F)[C@@H]4C[C@H]54)nc3c2)CC1 (atropisomer, axis not shown; (P)) [Example 13]",0.098,> 1000
"CN1CCC(c2ccc3c(=O)n(-c4ccc(Cl)c5c(NS(C)(=O)=O)nn(C)c45)c([C@H](Cc4cc(F)cc(F)c4)NC(=O)Cn4nc(C(F)F)c5c4C(F)(F)[C@@H]4C[C@H]54)nc3c2)CC1 (atropisomer, axis not shown; (P)) [Example 14, N—((S)-1-((3P)-3-(4-chloro-1-methyl-3-(methylsulfonamido)-1H-indazol-7-yl)-7-(1-methylpiperidin-4-yl)-4-oxo-3,4-dihydroquinazolin-2-yl)-2-(3,5-difluorophenyl)ethyl)-2-((3bS,4aR)-3-(difluoromethyl)-5,5-difluoro-3b,4,4a,5-tetrahydro-1H-cyclopropa[3,4]cyclopenta[1,2-c]pyrazol-1-yl)acetamide]",0.23,> 500
"CC(C)CCC(F)(F)c1ccc2c(=O)n(-c3ccc(Cl)c4c(NS(C)(=O)=O)nn(C)c34)c([C@H](Cc3cc(F)cc(F)c3)NC(=O)Cn3nc(C(F)F)c4c3C(F)(F)[C@@H]3C[C@H]43)nc2c1 (atropisomer, axis not shown; (P)) [Example 23, N—((S)-1-((3P)-3-(4-chloro-1-methyl-3-(methylsulfonamido)-1H-indazol-7-yl)-7-(1,1-difluoro-4-methylpentyl)-4-oxo-3,4-dihydroquinazolin-2-yl)-2-(3,5-difluorophenyl)ethyl)-2-((3bS,4aR)-3-(difluoromethyl)-5,5-difluoro-3b,4,4a,5-tetrahydro-1H-cyclopropa[3,4]cyclopenta[1,2-c]pyrazol-1-yl)acetamide]",4.4,
